Results on ten compounds are retold here after patent US10709709B2, “Substituted carbonucleoside derivatives useful as anticancer agents” (Pfizer Inc., priority 2016, dated 2020).

Assay [1] deals with PRMT5/MEP50 protein complex (Homo sapiens (Human), UniProt O14744). The experiment in a line: PRMT5 biochemical assay (3H-SAM methylation of H4(1-21) peptide, filter plate scintillation). Conditions: 10 nM PRMT5/MEP50 complex, 200 nM H4(1-21) peptide, 1 uM SAM, 25 minute incubation at room temperature. A digest of the protocol:
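Scintillation read-out: after 25 min at room temperature and a TCA stop, tritiated H4(1-21) product (peptide 200 nM) is caught on a filter plate. Reaction holds 10 nM PRMT5/MEP50 and 1 uM 3H-labelled plus cold SAM in 50 mM Tris pH 8.5 with MgCl2, EDTA and TCEP. IC50 values come from a 4-parameter dose-response fit.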

The subject of assay [2] is A549 lung adenocarcinoma cells. The assay is described as follows: A549 proliferation assay (Cell Titer Glo). It counts as cell-based. Conditions: Homo sapiens, 7 days with compound, cell viability by Cell Titer Glo (ATP). A digest of the protocol:
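A549 cells plated overnight, then treated with nine-point 3.3-fold dilutions (final top 10 μM, 0.2% DMSO) for 7 days at 37 °C, with media and compound refreshed on day 4. Viability measured as ATP by Cell Titer Glo luminescence; IC50 from 4-parameter fit normalized to DMSO control.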

Chain of PRMT5/MEP50 protein complex (O14744 other isoform, or with tags, fused parts or gaps): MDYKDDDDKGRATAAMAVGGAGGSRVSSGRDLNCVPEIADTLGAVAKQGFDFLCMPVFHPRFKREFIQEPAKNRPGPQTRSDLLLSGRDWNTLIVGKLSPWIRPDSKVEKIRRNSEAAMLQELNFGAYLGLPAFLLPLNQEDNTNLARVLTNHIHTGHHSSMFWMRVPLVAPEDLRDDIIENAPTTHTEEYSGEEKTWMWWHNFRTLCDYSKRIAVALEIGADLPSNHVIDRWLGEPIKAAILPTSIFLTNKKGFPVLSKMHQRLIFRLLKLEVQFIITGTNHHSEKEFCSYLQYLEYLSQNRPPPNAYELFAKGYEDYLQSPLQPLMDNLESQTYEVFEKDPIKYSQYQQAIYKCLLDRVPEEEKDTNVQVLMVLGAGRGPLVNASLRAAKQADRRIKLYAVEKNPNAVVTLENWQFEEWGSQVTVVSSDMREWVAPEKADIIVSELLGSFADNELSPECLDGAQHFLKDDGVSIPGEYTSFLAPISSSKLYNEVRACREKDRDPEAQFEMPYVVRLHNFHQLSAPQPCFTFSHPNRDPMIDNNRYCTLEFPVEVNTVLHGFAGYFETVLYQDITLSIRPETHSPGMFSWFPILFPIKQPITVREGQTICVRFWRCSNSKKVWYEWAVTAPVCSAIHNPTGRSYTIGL
Chain of PRMT5/MEP50 protein complex (Q9BQA1 whole entry partner): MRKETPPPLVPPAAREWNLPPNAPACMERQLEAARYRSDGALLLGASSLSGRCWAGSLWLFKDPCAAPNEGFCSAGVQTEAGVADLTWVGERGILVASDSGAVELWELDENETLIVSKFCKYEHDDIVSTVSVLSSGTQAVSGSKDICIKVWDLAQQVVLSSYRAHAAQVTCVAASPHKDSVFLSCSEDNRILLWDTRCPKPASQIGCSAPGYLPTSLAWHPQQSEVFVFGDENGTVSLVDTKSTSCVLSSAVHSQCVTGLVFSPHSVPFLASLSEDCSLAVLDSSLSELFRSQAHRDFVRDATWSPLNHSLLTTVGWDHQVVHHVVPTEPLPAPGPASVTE

Turning to `Cc1ncnc2c1ccn2[C@@H]1C[C@H](Oc2ccc(Cl)c(F)c2CN)[C@@H](O)[C@H]1O` [Example 143, (1S,2S,3S,5R)-3-(2-(aminomethyl)-4-chloro-3-fluorophenoxy)-5-(4-methyl-7H-pyrrolo[2,3-d]pyrimidin-7-yl)cyclopentane-1,2-diol], the IC50 in assay [1] was determined as 6 nM; in assay [2] (A549, 168 h) it was 1400 nM.
`Cc1ncnc2c1ccn2[C@@H]1C[C@H](Oc2ccc(Cl)cc2CCN)[C@@H](O)[C@H]1O` [Example 146, (1S,2S,3S,5R)-3-(2-(2-aminoethyl)-4-chlorophenoxy)-5-(4-methyl-7H-pyrrolo[2,3-d]pyrimidin-7-yl)cyclopentane-1,2-diol]: the IC50 in assay [1] stood at 27 nM; in assay [2] (168 h), 7070 nM.
On to `Cc1ncnc2c1ccn2[C@@H]1C[C@H](Oc2cc(F)c(F)cc2CN)[C@@H](O)[C@H]1O` [Example 148, (1S,2S,3S,5R)-3-(2-(aminomethyl)-4,5-difluorophenoxy)-5-(4-methyl-7H-pyrrolo[2,3-d]pyrimidin-7-yl)cyclopentane-1,2-diol], for which the IC50 in assay [1] worked out at 2 nM; in assay [2] (A549, 168 h), 4880 nM.
Take `Cc1ncnc2c1ccn2[C@@H]1C[C@H](Oc2cc(C(F)F)cc3c2CNCC3)[C@@H](O)[C@H]1O` [Example 154, (1S,2S,3S,5R)-3-((6-(difluoromethyl)-1,2,3,4-tetrahydroisoquinolin-8-yl)oxy)-5-(4-methyl-7H-pyrrolo[2,3-d]pyrimidin-7-yl)cyclopentane-1,2-diol]: the concentration for half-maximal inhibition (IC50) in assay [1] was 1 nM; in assay [2] (A549, 168 h), 2 nM.
For `Cc1ncnc2c1ccn2[C@@H]1C[C@H](Oc2ccc(Cl)cc2CN)[C@@H](O)[C@H]1O` [Example 159, (1S,2S,3S,5R)-3-(2-(aminomethyl)-4-chlorophenoxy)-5-(4-methyl-7H-pyrrolo[2,3-d]pyrimidin-7-yl)cyclopentane-1,2-diol], the half-inhibitory concentration (IC50) in assay [1] stood at 5 nM; in assay [2] (A549, 168 h), 5200 nM.
For `Cc1ncnc2c1ccn2[C@@H]1C[C@H]([C@H](O)c2ccc(Cl)c(F)c2)[C@@H](O)[C@H]1O` [Example 160, (1S,2R,3R,5R)-3-((S)-(4-chloro-3-fluorophenyl)(hydroxy)methyl)-5-(4-methyl-7H-pyrrolo[2,3-d]pyrimidin-7-yl)cyclopentane-1,2-diol] the same measures were 9 nM and 405 nM.
The like results for `Cc1ncnc2c1ccn2[C@@H]1C[C@H](Oc2cccc3c2CNCCO3)[C@@H](O)[C@H]1O` [Example 164, (1S,2S,3R,5S)-3-(4-methyl-7H-pyrrolo[2,3-d]pyrimidin-7-yl)-5-((2,3,4,5-tetrahydrobenzo[f][1,4]oxazepin-6-yl)oxy)cyclopentane-1,2-diol] were, in that order, 4 nM and 3860 nM.
As for `Cc1ncnc2c1ccn2[C@@H]1C[C@H](Oc2cc(-c3cn[nH]c3)cc3c2CNCC3)[C@@H](O)[C@H]1O` [Example 165, (1S,2S,3S,5R)-3-((6-(1H-pyrazol-4-yl)-1,2,3,4-tetrahydroisoquinolin-8-yl)oxy)-5-(4-methyl-7H-pyrrolo[2,3-d]pyrimidin-7-yl)cyclopentane-1,2-diol], the IC50 in assay [1] is 2 nM; in assay [2] (A549, 168 h), 766 nM.
Turning to `Cc1ncnc2c1ccn2[C@@H]1C[C@H](Oc2cc(-c3cn[nH]c3)c(F)c3c2CNCC3)[C@@H](O)[C@H]1O` [Example 166, (1S,2S,3S,5R)-3-((5-fluoro-6-(1H-pyrazol-4-yl)-1,2,3,4-tetrahydroisoquinolin-8-yl)oxy)-5-(4-methyl-7H-pyrrolo[2,3-d]pyrimidin-7-yl)cyclopentane-1,2-diol], the IC50 worked out at 3 nM in assay [1] and 39 nM in assay [2] (A549, 168 h).
Take `Cc1cc2cccc(O[C@H]3C[C@@H](n4ccc5c(C)ncnc54)[C@H](O)[C@@H]3O)c2cn1` [Example 169, (1S,2S,3R,5S)-3-(4-methyl-7H-pyrrolo[2,3-d]pyrimidin-7-yl)-5-((3-methylisoquinolin-8-yl)oxy)cyclopentane-1,2-diol]: the IC50 was 37 nM in assay [1] and 743 nM in assay [2] (A549, 168 h).
